{
  "source": "paper PMC3125126",
  "about": "(European journal of pharmacology, 2010)",
  "key": {"[1]": {"system": "Ca2+-independent phospholipase A2", "conditions": "ref Yang et al., 1999; cited from earlier work"}, "[2]": {"system": "dopamine transporter", "conditions": "ref Chen et al., 2003, cited from earlier work"}, "[3]": {"system": "Ca2+-dependent phospholipase A2", "conditions": "ref Street et al., 1993; cited from earlier work"}, "[4]": {"molecular_target": "T1, human dopamine transporter (hDAT) (Homo sapiens, UniProt Q01959)", "T1 sequence (Q01959 whole entry)": "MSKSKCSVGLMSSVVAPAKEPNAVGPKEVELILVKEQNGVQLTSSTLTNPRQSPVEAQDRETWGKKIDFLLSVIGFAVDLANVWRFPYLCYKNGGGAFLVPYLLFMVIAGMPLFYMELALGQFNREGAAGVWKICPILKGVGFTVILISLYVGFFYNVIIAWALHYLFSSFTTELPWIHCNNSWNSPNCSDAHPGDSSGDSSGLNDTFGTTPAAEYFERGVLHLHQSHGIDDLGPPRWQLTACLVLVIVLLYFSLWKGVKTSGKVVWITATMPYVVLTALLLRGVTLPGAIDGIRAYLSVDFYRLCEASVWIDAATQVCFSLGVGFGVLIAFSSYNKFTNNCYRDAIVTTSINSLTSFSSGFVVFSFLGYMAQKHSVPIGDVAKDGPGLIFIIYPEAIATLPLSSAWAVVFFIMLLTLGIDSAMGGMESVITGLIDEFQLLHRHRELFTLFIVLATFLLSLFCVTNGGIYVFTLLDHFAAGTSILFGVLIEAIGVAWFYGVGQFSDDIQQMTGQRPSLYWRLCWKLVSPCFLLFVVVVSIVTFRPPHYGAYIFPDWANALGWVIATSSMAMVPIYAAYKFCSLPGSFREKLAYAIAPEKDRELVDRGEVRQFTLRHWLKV", "test": "[125I]RTI-55 binding to membranes of HEK-D2-hDAT cells", "conditions": "no melittin, 4°C, 16 h, 4 independent experiments"}, "[5]": {"system": "dopamine transporter", "conditions": "ref Ingram and Amara, 2000; cited from earlier work"}, "[6]": {"system": "glutamate uptake", "conditions": "ref Volterra et al., 1992, 1994; cited from earlier work"}, "[7]": {"system": "protein kinase Cγ", "conditions": "bovine cerebellar cells; ref Shearman et al., 1989; cited from earlier work"}, "[8]": {"system": "purified synaptosomes from rat striatum", "conditions": "rat striatal synaptosomes; ref L'hirondel et al., 1995; cited from earlier work"}, "[9]": {"system": "rat glutamate transporter, EAAT4", "conditions": "ref Fairman et al., 1998, Tzingounis et al.; cited from earlier work"}, "[10]": {"molecular_target": "T1, human dopamine transporter (hDAT)", "format": "cell-based", "conditions": "butaclamol 100 nM added 10 min before uptake, with melittin 30 min pretreatment"}, "[11]": {"molecular_target": "T1, human dopamine transporter (hDAT)", "test": "Dopamine transporter internalization by biotinylation", "format": "cell-based"}, "[12]": {"system": "dopamine transporter", "conditions": "ref Daniels and Amara, 1999; cited from earlier work"}, "[13]": {"system": "phospholipase C activity in HEK-D2-hDAT cells", "format": "cell-based, human"}, "[14]": {"system": "phospholipase A2 activity in HEK-D2-hDAT cells", "test": "Phospholipase A2 activity after cell treatment", "format": "cell-based, human", "conditions": "melittin 10 µM and/or quinacrine 10 µM, 30 min; n=3; not significant P>0.05"}, "[15]": {"system": "rat Leydig cells", "conditions": "ref Ronco et al., 2002; cited from earlier work"}, "[16]": {"system": "rat (ventral tegmental area)", "conditions": "pretreatment with quinacrine; ref Reid et al., 1996; cited from earlier work"}, "[17]": {"system": "HEK-D2-hDAT cells", "test": "[3H]Arachidonic acid release from preloaded cells", "format": "cell-based, human", "conditions": "quinpirole 1 nM to 10 µM; loaded 4 or 24 hours; data not shown"}, "[18]": {"system": "GTP binding regulatory proteins", "conditions": "ref Higashijima et al., 1988; cited from earlier work"}, "[19]": {"conditions": "ref Sugama et al., 2005; Nakamura et al., 2004; cited from earlier work"}},
  "note": "Values joined by “and” are separate entries in the source; they are usually repeats but may differ in a detail not shown here. Identical values can stand only once. Like-named read-outs stand apart in the source and are kept apart here.",
  "data": [
    {"compound": "O=C1O/C(=C/Br)CCC1c1cccc2ccccc12", "note": "(stereo not shown) [4-bromoenol lactone]", "values": [
      {"measurement": "inhibition of Ca2+-independent phospholipase A2", "setting": "[1]", "value": "selectively inhibited"}
    ]},
    {"compound": "CCCCC/C=C\\C/C=C\\C/C=C\\C/C=C\\CCCC(=O)OCC", "note": "[Arachidonic acid ethyl ester]", "values": [
      {"measurement": "effect on dopamine transporter function (mimicry of arachidonic acid)", "setting": "[2]; Ingram and Amara, 2000", "value": "does not mimic the effects of arachidonic acid on dopamine transporter function"}
    ]},
    {"compound": "CCCCC/C=C\\C/C=C\\C/C=C\\C/C=C\\CCCC(=O)C(F)(F)F", "note": "[Arachidonyl trifluoromethyl ketone]", "values": [
      {"measurement": "inhibition of Ca2+-dependent phospholipase A2", "setting": "[3]", "value": "potent and selective inhibitor"}
    ]},
    {"compound": "COC(=O)[C@H]1C(c2ccc(I)cc2)C[C@@H]2CC[C@H]1N2C", "note": "(stereo partly shown) [RTI-55]", "values": [
      {"measurement": "RTI-55 Bmax", "setting": "[4]; protease inhibitors", "value": "6.7 ± 0.8", "unit": "pmol/mg"},
      {"measurement": "Kd", "setting": "[4]; read-out: RTI-55 KD", "value": "8.3 ± 1.8", "unit": "nM"}
    ]},
    {"compound": "CCCCC/C=C\\C/C=C\\C/C=C\\C/C=C\\CCCC(=O)O", "note": "[arachidonic acid]", "values": [
      {"measurement": "effect on cation conductance", "setting": "[5]", "value": "directly stimulates a cocaine-sensitive cation conductance"},
      {"measurement": "effect on uptake of glutamate", "setting": "[6]", "value": "inhibits uptake of glutamate"},
      {"measurement": "protein kinase Cγ activation", "setting": "[7]", "value": "can activate protein kinase Cγ"},
      {"measurement": "dopamine uptake by rotating disk electrode voltammetry", "setting": "[2]", "value": "decrease in dopamine uptake"},
      {"measurement": "spontaneous dopamine release, dopamine synthesis and uptake", "setting": "[8]", "value": "dose-dependently increases spontaneous release of dopamine and decreases dopamine synthesis and uptake"},
      {"measurement": "effect on proton conductance", "setting": "[9]", "value": "alters proton conductance"}
    ]},
    {"compound": "CC(C)(C)[C@]1(O)CCN2C[C@H]3c4ccccc4CCc4cccc(c43)[C@@H]2C1", "note": "[butaclamol]", "values": [
      {"measurement": "effect of D2 receptor block on [3H]dopamine uptake", "setting": "[10]", "value": "no difference in [^3H]dopamine uptake"}
    ]},
    {"compound": "COC(=O)[C@H]1[C@@H](OC(=O)c2ccccc2)C[C@@H]2CC[C@H]1N2C", "note": "[cocaine]", "values": [
      {"measurement": "dopamine transporter internalization", "setting": "[11]", "value": "97.8 ± 6.2 % of control and 93.9 ± 8.4 % of control"},
      {"measurement": "effect on phorbol ester-induced dopamine transporter internalization", "setting": "[12]", "value": "does not alter phorbol ester-induced dopamine transporter internalization"}
    ]},
    {"compound": "NCCc1ccc(O)c(O)c1", "note": "[dopamine]", "values": [
      {"measurement": "inositol phosphate-1 concentration", "setting": "[13]", "value": "8.8 ± 3.0", "unit": "nM"}
    ]},
    {"compound": "CCCCC/C=C\\C/C=C\\CCCCCCCC(=O)O", "note": "[linoleic acid]", "values": [
      {"measurement": "dopamine uptake by rotating disk electrode voltammetry", "setting": "[2]", "value": "inhibit dopamine transporter-mediated uptake, although to a lesser degree"}
    ]},
    {"compound": "NC[C@@H]1O[C@H](O[C@H]2[C@@H](O)[C@H](O[C@@H]3[C@@H](O)[C@H](N)C[C@H](N)[C@H]3O[C@H]3O[C@H](CN)[C@@H](O)[C@H](O)[C@H]3N)O[C@@H]2CO)[C@H](N)[C@@H](O)[C@@H]1O", "note": "[neomycin]", "values": [
      {"measurement": "phospholipase C activity in presence of melittin without or with neomycin", "setting": "[13]; neomycin 30 µM pretreatment, melittin 1.3 µM, 1 hour", "value": "no significant difference"}
    ]},
    {"compound": "CCCCCCCC/C=C\\CCCCCCCC(=O)O", "note": "[oleic, oleic acid]", "values": [
      {"measurement": "dopamine uptake by rotating disk electrode voltammetry", "setting": "[2]", "value": "inhibit dopamine transporter-mediated uptake, although to a lesser degree"}
    ]},
    {"compound": "CCN(CC)CCCC(C)Nc1c2ccc(Cl)cc2nc2ccc(OC)cc12", "note": "(stereo not shown) [quinacrine]", "values": [
      {"measurement": "phospholipase A2 activity", "setting": "[14]", "value": "134 ± 19 % compared to control"},
      {"measurement": "effect on melittin-induced arachidonic acid release", "setting": "[15]", "value": "unable to inhibit melittin-induced release of arachidonic acid"},
      {"measurement": "block of melittin-caused sensitization", "setting": "[16]", "value": "blocked"}
    ]},
    {"compound": "CCCN1CCC[C@@H]2Cc3n[nH]cc3C[C@H]21", "note": "[quinpirole]", "values": [
      {"measurement": "inositol phosphate-1 concentration", "setting": "[13]; quinpirole 1 µM, 1 hour, basal 8.3 ± 2.5 nM, n=3, not significant P>0.05", "value": "11.1 ± 2.0", "unit": "nM"},
      {"measurement": "release of loaded [3H]arachidonic acid", "setting": "[17]", "value": "less than 0.4%"}
    ]},
    {"compound": "mastoparan", "values": [
      {"measurement": "stimulation of GTP binding regulatory proteins", "setting": "[18]", "value": "stimulate GTP binding regulatory proteins indirectly"},
      {"measurement": "effect on membrane lipid rafts", "setting": "[19]", "value": "disrupts the membrane lipid rafts"}
    ]}
  ]
}
